Patent US9907800B2, “Kinase inhibitors and method of treating cancer” (University Health Network, priority 2010, dated 2018)
pIC50: −log10 of the molar value. Structures can show the parent of a compound that is named as a salt.

Key:
[1] = target: human PLK4 (Homo sapiens (Human), UniProt O00444); test: PLK4 inhibition assay (indirect ELISA); type: biochemical; conditions: read-out: PLK4 IC50 Ranges
[2] = target: Aurora B (Homo sapiens (Human), UniProt Q96GD4); test: Aurora B inhibition assay (Z-Lyte); type: biochemical; conditions: read-out: Aurora B IC50 Ranges
Aurora B, sequence (Q96GD4 whole entry): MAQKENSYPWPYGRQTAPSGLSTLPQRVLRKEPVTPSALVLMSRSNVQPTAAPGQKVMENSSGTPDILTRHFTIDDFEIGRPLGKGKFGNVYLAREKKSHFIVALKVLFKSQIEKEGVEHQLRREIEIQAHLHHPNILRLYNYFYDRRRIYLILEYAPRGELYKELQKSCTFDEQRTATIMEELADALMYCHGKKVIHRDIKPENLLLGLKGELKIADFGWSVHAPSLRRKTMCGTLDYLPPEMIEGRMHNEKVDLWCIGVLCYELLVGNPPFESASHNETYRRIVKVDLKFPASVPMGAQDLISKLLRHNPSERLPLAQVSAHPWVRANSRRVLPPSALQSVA

human PLK4, sequence (O00444 1-391): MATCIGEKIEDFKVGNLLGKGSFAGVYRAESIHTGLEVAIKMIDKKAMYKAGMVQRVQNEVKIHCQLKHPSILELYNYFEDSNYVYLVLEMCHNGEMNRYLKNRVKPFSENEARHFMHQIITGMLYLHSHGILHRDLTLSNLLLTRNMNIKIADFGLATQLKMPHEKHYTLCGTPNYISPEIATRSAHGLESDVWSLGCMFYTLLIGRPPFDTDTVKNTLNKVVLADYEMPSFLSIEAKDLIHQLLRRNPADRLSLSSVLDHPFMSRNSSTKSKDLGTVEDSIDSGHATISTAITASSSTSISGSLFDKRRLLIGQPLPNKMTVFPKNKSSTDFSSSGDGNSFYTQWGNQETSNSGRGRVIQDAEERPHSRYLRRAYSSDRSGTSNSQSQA

| pIC50 [1] | pIC50 [2] | SMILES |
| --- | --- | --- |
| > 7.00 | > 7.00 | COc1ccc2c(c1)[C@]1(C[C@H]1c1ccc3c(/C=C/c4ccc(OC5CCN(C)CC5)cc4)n[nH]c3c1)C(=O)N2 [Example A79, (1R,2S)-(E)-5′-methoxy-2-(3-(4-(1-methylpiperidin-4-yloxy)styryl)-1H-indazol-6-yl)spiro[cyclopropane-1,3′-indolin]-2′-one 2,2,2-trifluoroacetate salt] |
| > 7.00 | > 7.00 | COc1ccc2c(c1)[C@]1(C[C@H]1c1ccc3c(/C=C/c4ccc(CN5CCCC5)cc4)n[nH]c3c1)C(=O)N2 [Example A83, (1R,2S)-(E)-5′-methoxy-2-(3-(4-(pyrrolidin-1-ylmethyl)styryl)-1H-indazol-6-yl)spiro[cyclopropane-1,3′-indolin]-2′-one 2,2,2-trifluoroacetate] |
| > 7.00 | > 7.00 | COc1ccc2c(c1)[C@]1(C[C@H]1c1ccc3c(-c4ccc(N5CCNCC5)cc4)n[nH]c3c1)C(=O)N2C [Example A101, (1R,2S)-5′-methoxy-1′-methyl-2-(3-(4-(piperazin-1-yl)phenyl)-1H-indazol-6-yl)spiro[cyclopropane-1,3′-indolin]-2′-one 2,2,2-trifluoroacetate] |
| > 7.00 | > 7.00 | COc1ccc2c(c1)[C@]1(C[C@H]1c1ccc3c(-c4ccc5nccn5c4)n[nH]c3c1)C(=O)N2 [Example A107, (1R,2S)-2-(3-(imidazo[1,2-a]pyridin-6-yl)-1H-indazol-6-yl)-5′-methoxyspiro[cyclopropane-1,3′-indolin]-2′-one 2,2,2-trifluoroacetate] |
| > 7.00 | > 7.00 | COc1ccc2c(c1)[C@]1(C[C@H]1c1ccc3c(-c4ccc(OCCn5ccnc5)cc4)n[nH]c3c1)C(=O)N2 [Example A108, (1R,2S)-2-(3-(4-(2-(1H-imidazol-1-yl)ethoxy)phenyl)-1H-indazol-6-yl)-5′-methoxyspiro[cyclopropane-1,3′-indolin]-2′-one 2,2,2-trifluoroacetate] |
| > 7.00 | > 7.00 | CN1CCN(c2ccc(/C=C/c3n[nH]c4cc([C@@H]5C[C@@]56C(=O)N(C)c5ccccc56)ccc34)cn2)CC1 [Example A110, (1R,2S)-1′-methyl-2-(3-((E)-2-(6-(4-methylpiperazin-1-yl)pyridin-3-yl)vinyl)-1H-indazol-6-yl)spiro[cyclopropane-1,3′-indolin]-2′-one bis(2,2,2-trifluoro acetate)] |
| > 7.00 | > 7.00 | O=C1Nc2ccccc2[C@]12C[C@H]2c1ccc2c(/C=C/c3cc(F)c(CN4CCOCC4)c(F)c3)n[nH]c2c1 [Example A116, (1R,2S)-(E)-2-(3-(3,5-difluoro-4-(morpholinomethyl)styryl)-1H-indazol-6-yl)spiro[cyclopropane-1,3′-indolin]-2′-one 2,2,2-trifluoroacetate] |
| > 7.00 | > 7.00 | COc1ccc2c(c1)[C@]1(C[C@H]1c1ccc3c(-c4ccc(C5CCN(C)CC5)cc4)n[nH]c3c1)C(=O)N2 [Example A123, (1R,2S)-5′-methoxy-2-(3-(4-(1-methylpiperidin-4-yl)phenyl)-1H-indazol-6-yl)spiro[cyclopropane-1,3′-indolin]-2′-one hydrochloride] |
| > 7.00 | > 7.00 | CCN(CC)Cc1c(F)cc(/C=C/c2n[nH]c3cc([C@@H]4C[C@@]45C(=O)Nc4ccc(OC)cc45)ccc23)cc1F [Example A146, (1R,2S)-(E)-2-(3-(4-((diethylamino)methyl)-3,5-difluorostyryl)-1H-indazol-6-yl)-5′-methoxyspiro[cyclopropane-1,3′-indolin]-2′-one 2,2,2-trifluoroacetate] |
| > 7.00 | > 7.00 | COc1ccc2c(c1)[C@]1(C[C@H]1c1ccc3c(/C=C/c4csc(CN5CCOCC5)c4)n[nH]c3c1)C(=O)N2 [Example A183, (1R,2S)-5′-methoxy-2-(3-((E)-2-(5-(morpholinomethyl)thiophen-3-yl)vinyl)-1H-indazol-6-yl)spiro[cyclopropane-1,3′-indolin]-2′-one 2,2,2-trifluoroacetate] |
| > 7.00 | > 7.00 | CCN1CCN(c2ccc(/C=C/c3n[nH]c4cc([C@@H]5C[C@@]56C(=O)Nc5ccc(OC)cc56)ccc34)cc2)CC1 [Example A187, (1R,2S)-(E)-2-(3-(4-(4-ethylpiperazin-1-yl)styryl)-1H-indazol-6-yl)-5′-methoxyspiro[cyclopropane-1,3′-indolin]-2′-one 2,2,2-trifluoroacetate] |
| > 7.00 | > 7.00 | COc1ccc2c(c1)[C@]1(C[C@H]1c1ccc3c(/C=C/c4ccc(OCCN5CCOCC5)cc4)n[nH]c3c1)C(=O)N2 [Example A194, (1R,2S)-(E)-5′-methoxy-2-(3-(4-(2-morpholinoethoxy)styryl)-1H-indazol-6-yl)spiro[cyclopropane-1,3′-indolin]-2′-one 2,2,2-trifluoroacetate] |
| > 7.00 | > 7.00 | COc1ccc2c(c1)[C@]1(C[C@H]1c1ccc3c(/C=C/c4cccnc4)n[nH]c3c1)C(=O)N2 [Example A197, (1R,2S)-5′-methoxy-2-(3-((E)-2-(pyridin-3-yl)vinyl)-1H-indazol-6-yl)spiro[cyclopropane-1,3′-indolin]-2′-one] |

Second part, the compound before the results:

| SMILES | pIC50 [1] | pIC50 [2] |
| --- | --- | --- |
| CC(C)(c1ccc(/C=C/c2n[nH]c3cc([C@@H]4C[C@@]45C(=O)Nc4ccccc45)ccc23)cc1)N1CCOCC1 [Example A80, (1R,2S)-(E)-2-(3-(4-(2-morpholinopropan-2-yl)styryl)-1H-indazol-6-yl)spiro[cyclopropane-1,3′-indolin]-2′-one 2,2,2-trifluoroacetate salt] | > 7.00 | 6.00 to 7.00 |
| CN1CCC(Cc2ccc(/C=C/c3n[nH]c4cc([C@@H]5C[C@@]56C(=O)Nc5ccccc56)ccc34)cc2)CC1 [Example A81, (1R,2S)-(E)-2-(3-(4-((1-methylpiperidin-4-yl)methyl)styryl)-1H-indazol-6-yl)spiro[cyclopropane-1,3′-indolin]-2′-one 2,2,2-trifluoroacetate salt] | > 7.00 | > 7.00 |
| COc1ccc2c(c1)[C@]1(C[C@H]1c1ccc3c(/C=C/c4ccc(CC5CCN(C)CC5)cc4)n[nH]c3c1)C(=O)N2 [Example A82, (1R,2S)-(E)-5′-methoxy-2-(3-(4-((1-methylpiperidin-4-yl)methyl)styryl)-1H-indazol-6-yl)spiro[cyclopropane-1,3′-indolin]-2′-one 2,2,2-trifluoroacetate salt] | > 7.00 | > 7.00 |
| CN1C(=O)[C@@]2(C[C@H]2c2ccc3c(/C=C/c4ccc(N5CCNCC5)cc4)n[nH]c3c2)c2ccccc21 [Example A90, (1R,2S)-(E)-1′-methyl-2-(3-(4-(piperazin-1-yl)styryl)-1H-indazol-6-yl)spiro[cyclopropane-1,3′-indolin]-2′-one hydrochloride] | > 7.00 | > 7.00 |
| O=C1Nc2ccccc2[C@]12C[C@H]2c1ccc2c(/C=C/c3ccc(N4CCNCC4)cc3)n[nH]c2c1 [Example A92, (1R,2S)-(E)-2-(3-(4-(piperazin-1-yl)styryl)-1H-indazol-6-yl)spiro[cyclopropane-1,3′-indolin]-2′-one 2,2,2-trifluoroacetate] | > 7.00 | > 7.00 |
| CN1C(=O)[C@@]2(C[C@H]2c2ccc3c(/C=C/c4ccc(CN5CCCCC5)cc4)n[nH]c3c2)c2ccccc21 [Example A94, (1R,2S)-(E)-1′-methyl-2-(3-(4-(piperidin-1-ylmethyl)styryl)-1H-indazol-6-yl)spiro[cyclopropane-1,3′-indolin]-2′-one hydrochloride] | > 7.00 | > 7.00 |
| COc1ccc2c(c1)[C@]1(C[C@H]1c1ccc3c(/C=C/c4ccc(CN5CCOCC5)s4)n[nH]c3c1)C(=O)N2 [Example A105, (1R,2S)-5′-methoxy-2-(3-((E)-2-(5-(morpholinomethyl)thiophen-2-yl)vinyl)-1H-indazol-6-yl)spiro[cyclopropane-1,3′-indolin]-2′-one hydrochloride] | > 7.00 | > 7.00 |
| COc1ccc2c(c1)[C@]1(C[C@H]1c1ccc3c(/C=C/c4ccncc4)n[nH]c3c1)C(=O)N2 [Example A111, (1R,2S)-5′-methoxy-2-(3-((E)-2-(pyridin-4-yl)vinyl)-1H-indazol-6-yl)spiro[cyclopropane-1,3′-indolin]-2′-one 2,2,2-trifluoroacetate] | > 7.00 | > 7.00 |
| COc1ccc2c(c1)[C@]1(C[C@H]1c1ccc3c(-c4ccc(N5CCC(N6CCOCC6)CC5)cc4)n[nH]c3c1)C(=O)N2 [Example A121, (1R,2S)-5′-methoxy-2-(3-(4-(4-morpholinopiperidin-1-yl)phenyl)-1H-indazol-6-yl)spiro[cyclopropane-1,3′-indolin]-2′-one 2,2,2-trifluoroacetate] | > 7.00 | > 7.00 |
| COc1ccc2c(c1)[C@]1(C[C@H]1c1ccc3c(-c4ccc(N5CC[C@@H](N(C)C)C5)cc4)n[nH]c3c1)C(=O)N2 [Example A127, (1R,2S)-2-(3-(4-((R)-3-(dimethylamino)pyrrolidin-1-yl)phenyl)-1H-indazol-6-yl)-5′-methoxyspiro[cyclopropane-1,3′-indolin]-2′-one 2,2,2-trifluoroacetate] | > 7.00 | > 7.00 |
| COc1ccc2c(c1)[C@]1(C[C@H]1c1ccc3c(-c4ccc(N5CCN(CCO)CC5)cc4)n[nH]c3c1)C(=O)N2 [Example A191, (1R,2S)-2-(3-(4-(4-(2-hydroxyethyl)piperazin-1-yl)phenyl)-1H-indazol-6-yl)-5′-methoxyspiro[cyclopropane-1,3′-indolin]-2′-one 2,2,2-trifluoroacetate] | > 7.00 | > 7.00 |
| COc1ccc2c(c1)[C@]1(C[C@H]1c1ccc3c(-c4ccc(N5CCN(C6CCCCC6)CC5)cc4)n[nH]c3c1)C(=O)N2 [Example A193, (1R,2S)-2-(3-(4-(4-cyclohexylpiperazin-1-yl)phenyl)-1H-indazol-6-yl)-5′-methoxyspiro[cyclopropane-1,3′-indolin]-2′-one 2,2,2-trifluoroacetate] | > 7.00 | > 7.00 |
